Assay: Drug blood concentration pattern in rats after donepezil administration
Settings: rat, in vivo
Method: More specifically, 3 mg/kg of donepezil was administered orally, 1 mg/kg of donepezil was administered subcutaneously, or 43 mg/kg of donepezil was administered using the microneedle patch prepared in the above example to rats, and the drug blood concentration patterns were compared.
Next, rats were administered donepezil at different concentrations of 43 mg/kg, 80 mg/kg, and 125 mg/kg using the microneedle patch prepared in the above example, respectively, and the drug blood concentration patterns were compared.
Next, after administering 80 mg/kg of donepezil to rats using the microneedle patch prepared in the above example, the drug blood concentration pattern was compared between the case where the needle was removed in 1 hour and the case where the needle was applied for 3 days.

SMILES: COc1cc2c(cc1OC)C(=O)C(CC1CCN(Cc3ccccc3)CC1)C2 (centres unmarked) [donepezil]
- time in which drug blood concentration was very low (po, 3 mg/kg): about 1 day
- time in which drug blood concentration was very low (sc, 1 mg/kg): about 1 day
